Laboratory results reported in patent US12440479B2, “Prevention or treatment of chronic organ injury” (GEORG-AUGUST-UNIVERSITAET GOETTINGEN, STIFTUNG …, priority 2018, dated 2025).

Key:
[1] = system: UUO-challenged kidneys; assay: Unilateral ureteral obstruction (UUO): tubular injury and interstitial fibrosis (histology, immunostaining); assay type: in vivo, mice
[2] = system: intrarenal ARNT/ALK3 signaling; assay: UUO kidneys: ARNT/ALK3 expression and pSmad1/5/8 (qRT-PCR, immunoblotting, immunostaining); assay type: in vivo, mice; details: for canonical BMP signaling responses / intrarenal ARNT and ALK3 transcription: FK506 0.2 mg/kg or GPI-1046 30 mg/kg orally per day starting three days after UUO; for intrarenal NFAT signaling: picomolar FK506 or GPI-1046
Method: Eight to twelve weeks-old C57/6, yGTcre−;Yy1fl/fl and yGTcre+;Yy1fl/fl mice were anesthetized with isoflurane inhalation (2-3%), analgesia was performed by subcutaneous injection of 0.1 mg/kg body weight per day Buprenorphine. The ureter was separated from the surrounding tissues and two ligatures were placed about 5 mm apart in upper two-thirds of the left ureter to obtain reliable obstruction. Mice were sacrificed 3, 7 or 10 days after ureteral obstruction for further analyses, as described before (53, 153-155).
Paraffin-embedded specimens were deparaffinized in xylene and rehydrated in ethanol containing distilled water. Tissue sections were stained using polyclonal antibodies against ALK3 (sc-20736, Santa Cruz Biotechnology, Dallas, USA) and ARNT (3718S, Cell Signaling, Danvers, USA), peroxidase labeling was performed using Vectastain Universal Elite ABC Kit (Vector Laboratories, Burlingame, USA) according to the manufacturer's protocol. AEC Substrate-Chromogen (Dako, Glostrup, Denmark) was applied for peroxidase visualization according to the manufacturer's protocol. Nuclear counterstain was performed by using Mayer's Hematoxylin Solution (Sigma, St. Louis, USA).
For immunofluorescent staining, primary antibodies against ARNT (5537S, Cell Signaling, Danvers, USA), Hif1α (H6535, Sigma, St. Louis, USA), Hif2α (ab20654, Abcam Biochemicals, Cambridge, UK), phosphorylated Smad1/5/8 (pSmad1/5/8, sc-12353, Santa Cruz Biotechnology, Dallas, USA), CD45 (550539, BD Biosciences, Franklin Lakes, USA), Collagen-1 (ab34710, Abcam Biochemicals, Cambridge, UK), α-smooth muscle actin (aSMA, A5228, Sigma, St. Louis, USA), FKBP12 (ab2918, Abcam Biochemicals, Cambridge, UK) and YY1 (ab12132, Abcam Biochemicals, Cambridge, UK) were used, secondary antibodies were labeled with Alexa Fluor 488 or 568 (Life Technologies, Carlsbad, USA). Renal basement membranes were stained with antibodies against Collagen-4 (1340-30, SouthernBiotech, Birmingham, USA), cardiac cell membranes with antibodies against WGA (W11261, Life Technologies, Carlsbad, USA). Nuclear staining was performed using 4′,6-diamidino-2-phenylindole (DAPI, Vector Laboratories, Burlingame, USA). Relative areas positive for Collagen-1, aSMA, tubular nuclei positive for ARNT and pSmad1/5/8 were quantified in 10 high power fields per section at 400× magnification.
For SYBR-based real-time PCR, cDNA synthesis was performed by using DNase I digestion (Invitrogen, Carlsbad, USA) and SuperScript II Reverse Transcriptase (Invitrogen, Carlsbad, USA) according to the manufacturer's protocol. 1 μL of reverse-transcribed cDNA was added to the reaction mixture containing the primer pair (200 nmol/L each) and diluted 2× Fast SYBR Green Master Mix (Applied Biosystems, Carlsbad, USA) in a final volume of 20 μL for each PCR reaction. The real-time PCR reactions were performed in a 96-well reaction plate using the StepOne Plus Real-Time System (Applied Biosystems, Carlsbad, USA) and were done in triplicates. An initiation step at 95° C. for 20 seconds was followed by 40 cycles at 95° C. for 3 to seconds and 60° C. for 30 seconds, with one cycle of dissociation at 95° C. for 15 seconds, 60° C. for 60 seconds, and 95° C. for 15 seconds. The intercalation of SYBR Green dye and its fluorescent signal is directly proportional to the amount of amplified DNA and was transformed into the cycle threshold (Ct). For normalization, the Ct values of the housekeeping genes Gapdh and Actb were subtracted from the Ct values of the gene of interest to generate the dCt values. The relative expression levels were calculated using the equation 2^−ddCt.
Tissue and cells were homogenized in NP40 lysis buffer (Life technologies, Carlsbad, USA) supplemented with protease inhibitor cocktail (Roche, Basel, Switzerland).

[3] = system: ARNT; assay: ARNT mRNA expression levels in organs of treated mice (qRT-PCR); assay type: in vivo; details: FK506 0.2 mg/kg or GPI-1046 30 mg/kg orally per day; kidney, heart, brain, spinal cord, skin, liver, lung and intestine
Method: Solutions were changed once a day and mice were sacrificed at indicated time points.
Mice were injected subcutaneously with 10 mg/kg body weight per day GPI-1046 (Santa Cruz Biotechnology, Dallas, USA) in DMSO once daily starting one day prior of surgery, control mice received equivalent volume of vehicle DMSO. For oral administration, GPI-1046 stock solution was diluted in glucose-water (5%) and orally applied on the basis of an average drinking volume of 3 mL and a body weight of 20 g per mouse. Three days after challenging with UUO, mice were treated orally with either vehicle buffer glucose (5%) or 30 mg/kg body weight per day GPI-1046, respectively.
For SYBR-based real-time PCR, cDNA synthesis was performed by using DNase I digestion (Invitrogen, Carlsbad, USA) and SuperScript II Reverse Transcriptase (Invitrogen, Carlsbad, USA) according to the manufacturer's protocol. 1 μL of reverse-transcribed cDNA was added to the reaction mixture containing the primer pair (200 nmol/L each) and diluted 2× Fast SYBR Green Master Mix (Applied Biosystems, Carlsbad, USA) in a final volume of 20 μL for each PCR reaction. The real-time PCR reactions were performed in a 96-well reaction plate using the StepOne Plus Real-Time System (Applied Biosystems, Carlsbad, USA) and were done in triplicates. […] The relative expression levels were calculated using the equation 2^−ddCt.

[4] = system: functional parenchyma; assay: Streptozotocin (STZ) model of diabetic nephropathy; assay type: in vivo; details: STZ mice; FK506 0.2 mg/kg or GPI-1046 10 mg/kg subcutaneously per day
Method: Based on these observations, we next hypothesized that FK506 and small molecule FKBP12 inhibitor GPI-1046 could equally protect functional parenchyma in an experimental models of diabetic nephropathy (168). Diabetes was induced in 8 to 12 weeks old C57BL/6N mice by a single intraperitoneal injection of streptozotocin (STZ) at 200 mg/kg in 10 mmol/L citrate buffer (pH 4.5), citrate buffer alone was injected as control (168). FK506 (0.2 mg/kg body weight) and GPI-146 (10 mg/kg body weight) in DMSO once daily were applied by subcutaneous injections starting one day prior of STZ administration. At day 3 after STZ injection, diabetes was confirmed by urine dipstick. Mice were sacrificed 8 weeks after STZ injection for further analyses.

[5] = UUO, FK506 0.2 mg/kg or GPI-1046 30 mg/kg orally per day starting three days after UUO
[6] = UUO, FK506 0.02-5.0 mg/kg or CsA 10 mg/kg orally per day starting one day prior to UUO
[7] = UUO, VMO 12.5 mg/kg intraperitoneally or FK506 0.2 mg/kg orally per day
[8] = UUO, intrarenal ARNT induction depleted (Arnt-VMO)

Compound | effect of FK506 on ALK3 expression, nuclear pSmad1/5/8, tubular injury or interstitial fibrosis ([1]; UUO mice that had also received Fkbp12-VMO or Yy1-VMO) | effect of FK506 on BMP signaling, tubular injury, renal fibrogenesis, ALK3 transcription ([1]; UUO, mice with YY1 depleted in TECs (yGTcre+;Yy1fl/fl), FK506 0.2 mg/kg orally per day) | tubular injury and renal fibrogenesis [1, 5] | chronic tubular injury [1, 6] | interstitial fibrosis [1, 6] | tubular injury and tubulointerstitial fibrosis [1, 7] | protection of kidneys from tubular injury and progressive fibrotic disease [1, 8] | renal ARNT expression ([2]; UUO mice, low-dose FK506 or CsA) | nuclear pSmad1/5/8 ([2]; UUO-challenged murine kidneys) | expression of ALK3 ([2]; UUO-challenged murine kidneys, treatment starting one day prior) | canonical BMP signaling responses ([2]; UUO) | intrarenal ARNT and ALK3 transcription ([2]; UUO) | intrarenal ARNT, ALK3 and nuclear pSmad1/5/8 immunostaining [2, 7] | intrarenal ALK3-dependent BMP signaling responses [2, 8] | intrarenal NFAT signaling ([2]; UUO) | transcriptional ARNT induction in organs [3] | protection of functional parenchyma from chronic injury [4] | tubular injury and renal fibrogenesis ([1]; UUO, 10 mg/kg subcutaneously per day starting one day prior) | intrarenal ARNT and ALK3 transcription, BMP signaling responses ([2]; UUO, 10 mg/kg subcutaneously per day starting one day prior, compared to FK506)
C=CC[C@@H]1/C=C(\C)C[C@H](C)C[C@H](OC)[C@H]2O[C@@](O)(C(=O)C(=O)N3CCCC[C@H]3C(=O)O[C@H](/C(C)=C/[C@@H]3CC[C@@H](O)[C@H](OC)C3)[C@H](C)[C@@H](O)CC1=O)[C@H](C)C[C@@H]2OC [FK506, tacrolimus] | no additive effects | no additive effects | attenuated | reduced | reduced | attenuated | failure of FK506 to protect | significantly increased | nuclear pSmad1/5/8 accumulation | specifically induced | enhanced | equally effective | equally induced | failed to induce | not affecting | transcriptional ARNT induction was present | equally effective |  | 
CCC(C)(C)C(=O)C(=O)N1CCC[C@H]1C(=O)OCCCc1cccnc1 [GPI-1046, 3-(3-pyridyl)-1-propyl-(2S)-1-(3,3-dimethyl-1,2-dioxopentyl)-2-pyrrolidinedine carboxylate] |  |  | attenuated |  |  |  |  |  |  |  | enhanced | equally effective |  |  | not affecting | transcriptional ARNT induction was present | equally effective | protected | equally induced
